Reference: the NIST ThermoML archive (doi:10.1021/je700370z)
“And” between values parts separate entries of the source, which are not always exact repeats. Identical values can stand only once.

Conditions: Liquid; for viscosity: Falling or rolling sphere viscometry; for mass density: Vibrating tube method

CCCCn1cc[n+](C)c1.F[B-](F)(F)F [1-butyl-3-methylimidazolium tetrafluoroborate]
Conditions	mass density	viscosity
273.15 K, 100 kPa	1219.64 kg/m3	543 mPa·s and 542.8 mPa·s
273.15 K, 101.33 kPa	1219.5 kg/m3 and 1219.64 kg/m3	510.8 mPa·s and 511 mPa·s
278.15 K, 101.33 kPa	1215.79 kg/m3	353 mPa·s and 352.9 mPa·s
283.15 K, 100 kPa	1212.22 kg/m3	263.7 mPa·s and 263.8 mPa·s
283.15 K, 101.33 kPa	1212.07 kg/m3 and 1212.22 kg/m3	250.7 mPa·s and 250.6 mPa·s
283.15 K, 800 kPa	1212.53 kg/m3	266.3 mPa·s
283.15 K, 11000 kPa	1217.32 kg/m3	302.2 mPa·s
283.15 K, 24900 kPa	1223.58 kg/m3	359.1 mPa·s
283.15 K, 49600 kPa	1234.03 kg/m3	484.8 mPa·s
283.15 K, 75300 kPa	1244.07 kg/m3	655.9 mPa·s
283.15 K, 100600 kPa	1253.28 kg/m3	875 mPa·s
288.15 K, 101.33 kPa	1208.38 kg/m3	182.4 mPa·s
293.15 K, 100 kPa	1204.98 kg/m3	142.1 mPa·s and 142 mPa·s
293.15 K, 101.33 kPa	1204.83 kg/m3 and 1204.98 kg/m3	135.6 mPa·s and 135.7 mPa·s
298.15 K, 100 kPa	1201.43 kg/m3	108 mPa·s and 108.5 mPa·s and 108.7 mPa·s
298.15 K, 101.33 kPa	1201.29 kg/m3 and 1201.43 kg/m3	103.7 mPa·s [middle of 4 runs]
298.15 K, 500 kPa	1201.61 kg/m3	108.6 mPa·s
298.15 K, 25900 kPa	1213.76 kg/m3	142.6 mPa·s
298.15 K, 50800 kPa	1224.72 kg/m3	185 mPa·s
298.15 K, 75900 kPa	1234.94 kg/m3	239.8 mPa·s
298.15 K, 101100 kPa	1244.42 kg/m3	308.3 mPa·s
298.15 K, 126200 kPa	1253.22 kg/m3	393.9 mPa·s
298.15 K, 150600 kPa	1261.21 kg/m3	499.9 mPa·s
298.15 K, 150700 kPa	1261.23 kg/m3	500.6 mPa·s
298.15 K, 175400 kPa	1268.78 kg/m3	634.7 mPa·s
298.15 K, 200900 kPa	1276.07 kg/m3	808.3 mPa·s
303.15 K, 100 kPa	1197.88 kg/m3	84.6 mPa·s
303.15 K, 101.33 kPa	1197.75 kg/m3 and 1197.88 kg/m3	80.6 mPa·s and 80.7 mPa·s
313.15 K, 100 kPa	1190.78 kg/m3	53.5 mPa·s and 53.6 mPa·s
313.15 K, 101.33 kPa	1190.68 kg/m3	51.3 mPa·s
323.15 K, 100 kPa	1183.79 kg/m3	35.6 mPa·s
323.15 K, 101.33 kPa	1183.67 kg/m3 and 1183.79 kg/m3	34.6 mPa·s
323.15 K, 140 kPa	1183.79 kg/m3	36 mPa·s
323.15 K, 10495 kPa	1189.26 kg/m3	39.3 mPa·s
323.15 K, 25446 kPa	1196.8 kg/m3	44.5 mPa·s
323.15 K, 50493 kPa	1208.59 kg/m3	55.5 mPa·s
323.15 K, 75560 kPa	1219.46 kg/m3	68.1 mPa·s
323.15 K, 100566 kPa	1229.48 kg/m3	83.3 mPa·s
323.15 K, 125543 kPa	1238.76 kg/m3	101.5 mPa·s
323.15 K, 150422 kPa	1247.36 kg/m3	123.2 mPa·s
323.15 K, 175463 kPa	1255.42 kg/m3	149.2 mPa·s
323.15 K, 200347 kPa	1262.9 kg/m3	180.1 mPa·s
323.15 K, 225321 kPa	1269.94 kg/m3	216.9 mPa·s
323.15 K, 250139 kPa	1276.5 kg/m3	260.9 mPa·s
333.15 K, 100 kPa	1176.81 kg/m3	25.2 mPa·s and 25.5 mPa·s
333.15 K, 101.33 kPa	1176.7 kg/m3 and 1176.81 kg/m3	24.5 mPa·s
343.15 K, 100 kPa	1169.87 kg/m3	18.4 mPa·s and 18 mPa·s
343.15 K, 101.33 kPa	1169.79 kg/m3	18.1 mPa·s
348.15 K, 100 kPa	1166.45 kg/m3	16.2 mPa·s and 15.9 mPa·s
348.15 K, 101.33 kPa	1166.45 kg/m3	–
348.15 K, 11700 kPa	1172.95 kg/m3	17.4 mPa·s
348.15 K, 25200 kPa	1180.23 kg/m3	19.4 mPa·s
348.15 K, 50700 kPa	1192.94 kg/m3	23.3 mPa·s
348.15 K, 75600 kPa	1204.4 kg/m3	27.8 mPa·s
348.15 K, 100600 kPa	1214.97 kg/m3	33 mPa·s
348.15 K, 125600 kPa	1224.72 kg/m3	38.8 mPa·s
348.15 K, 150600 kPa	1233.78 kg/m3	45.6 mPa·s
348.15 K, 175600 kPa	1242.2 kg/m3	53.4 mPa·s
348.15 K, 200600 kPa	1250.04 kg/m3	62.3 mPa·s
348.15 K, 225500 kPa	1257.34 kg/m3	72.6 mPa·s
348.15 K, 250400 kPa	1264.17 kg/m3	84.6 mPa·s
348.15 K, 275300 kPa	1270.59 kg/m3	98.4 mPa·s
348.15 K, 300000 kPa	1276.57 kg/m3	114 mPa·s
353.15 K, 101.33 kPa	1162.92 kg/m3	13.9 mPa·s and 13.8 mPa·s
360.15 K, 101.33 kPa	1158.27 kg/m3	–
362.76 K, 101.33 kPa	1156.51 kg/m3	–
363.15 K, 101.33 kPa	1156.11 kg/m3	–
363.16 K, 101.33 kPa	1156.22 kg/m3	–
